What is called IC50 is the concentration that gives 50% inhibition.

In US10710986B2, “PD-1/PD-L1 inhibitors” (Gilead Sciences, Inc., priority 2018, dated 2020) one finds IC50 data, which are given here for 38 molecules.

PD-1/PD-L1, sequence (Q9NZQ7 19-238): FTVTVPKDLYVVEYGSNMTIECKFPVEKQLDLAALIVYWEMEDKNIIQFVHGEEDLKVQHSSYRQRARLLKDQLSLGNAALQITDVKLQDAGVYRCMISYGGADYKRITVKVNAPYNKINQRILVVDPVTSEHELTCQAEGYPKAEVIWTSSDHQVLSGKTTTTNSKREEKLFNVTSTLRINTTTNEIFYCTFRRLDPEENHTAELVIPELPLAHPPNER

The assay concerns the target PD-1/PD-L1 (Homo sapiens (Human), UniProt Q9NZQ7). The assay can be described thus: PD-1/PD-L1 biochemical protein-protein interaction assay (ALPHA). Particulars: 0.3 nM His tagged PD-L1, 2.5 nM biotinylated Fc-PD-1, 60 minutes at 25° C., read-out: IC50 PD-L1-PD1.
Regarding `COc1nc(-c2cccc(-c3cccc(-c4cnc(CNC[C@H]5CCC(=O)N5)c(OC)n4)c3Br)c2Cl)cnc1CNC[C@H]1CCC(=O)N1` [compound 392], the IC50 worked out at 0.246 nM.
For `COC[C@@H]1CCCN1Cc1ncc(-c2cccc(-c3cccc(-c4cnc(CNC[C@@H]5CCC(=O)N5)c(OC)n4)c3Cl)c2Cl)nc1OC` [compound 22] the value was 0.506 nM; for `COc1nc(-c2cccc(-c3cccc(-c4cnc(CNC[C@@H]5CC(C)C(=O)N5)c(OC)n4)c3Cl)c2Cl)cnc1CNC[C@@H]1CCC(=O)N1` (some centres unmarked) [compound 262], 0.465 nM.
The figure for `COc1nc(-c2cccc(-c3cccc(-c4cnc(CNC[C@@H]5CCC(=O)N5)c(OC)n4)c3Cl)c2Cl)ccc1CN[C@@H]1COC[C@H]1O` [compound 165] is 0.187 nM; for `COc1nc(-c2cccc(-c3cccc(-c4cnc(CN[C@@H]5CC[C@@H]6CC(=O)N[C@@H]65)c(OC)n4)c3Cl)c2Cl)cnc1CN[C@@H]1CC[C@@H]2CC(=O)N[C@@H]21` [compound 388] it is 1.22 nM; for `COc1nc(-c2cccc(-c3cccc(-c4cnc(C5=NC[C@H](CO)N5)c(OC)n4)c3Cl)c2Cl)cnc1C1=NC[C@H](CO)N1` [compound 133] it is 0.064 nM.
Consider `COc1nc(-c2cccc(-c3cccc(-c4cnc(CN[C@H]5C[C@@H](NC(C)=O)C5)c(OC)n4)c3Cl)c2Cl)cnc1CNC[C@@H]1CCC(=O)N1` [compound 362], for which the IC50 was found to be 0.074 nM.
For `COc1nc(-c2cccc(-c3cccc(-c4cnc(CN5CC[C@@H]6CC[C@@H](O)[C@@H]65)c(OC)n4)c3Cl)c2Cl)cnc1CNC[C@@H]1CCC(=O)N1` [compound 216] the value was 0.21 nM.
The figure for `COc1nc(-c2cccc(-c3cccc(-c4cnc(CN5CC(C(C)(C)O)C5)c(OC)n4)c3Cl)c2Cl)cnc1CN1CC(C(C)(C)O)C1` [compound 478] is 0.064 nM.
As for `COc1nc(-c2cccc(-c3cccc(-c4cnc(CNC[C@H]5CCS(=O)(=O)N5)c(OC)n4)c3Cl)c2Cl)cnc1CNC[C@H]1CCS(=O)(=O)N1` [compound 568], the concentration for half-maximal inhibition (IC50) came out at 0.293 nM.
For `COc1nc(-c2cccc(-c3cccc(-c4cnc(CNCc5ccn(C)n5)c(OC)n4)c3Cl)c2Cl)cnc1CNCc1ccn(C)n1` [compound 30], the IC50 came to 0.475 nM.
As for `COc1nc(-c2cccc(-c3cccc(-c4cnc(CNCCC(=O)O)c(OC)n4)c3Cl)c2Cl)ccc1CNC[C@@H]1CCC(=O)N1` [compound 512], the half-inhibitory concentration (IC50) was 0.101 nM.
For `COC1CN(Cc2ncc(-c3cccc(-c4cccc(-c5cnc(CN6CC(OC)C6)c(Cl)n5)c4Cl)c3Cl)nc2Cl)C1` [compound 107] the value was 1.54 nM; for `COc1nc(-c2cccc(-c3cccc(-c4cnc(CN[C@H]5C[C@H]5CO)c(OC)n4)c3Cl)c2Cl)cnc1CNC[C@@H]1CCC(=O)N1` [compound 268], 0.352 nM.
For the molecule `COc1nc(-c2cccc(-c3cccc(-c4cnc(CNC[C@@H]5CCC(=O)N5)c(OC)n4)c3Cl)c2Cl)cnc1CNCC1CC(=O)NC1=O` (some centres unmarked) [compound 403], the IC50 turned out to be 0.07 nM.
As to `COc1cc(-c2cccc(-c3cccc(-c4cnc(CN5CC6(CCC(=O)N6)C5)c(OC)n4)c3Cl)c2Cl)ccc1CN1CC2(CCC(=O)N2)C1` [compound 124], the IC50 amounted to 0.19 nM.
For `OC1CN(Cc2ncc(-c3cccc(-c4cccc(-c5cnc(CN6CC(O)C6)c(Cl)n5)c4Cl)c3Cl)nc2Cl)C1` [compound 108], the IC50 worked out at 0.474 nM.
Turning to `COc1nc(-c2cccc(-c3cccc(-c4ccc(CNC[C@@H]5CCC(=O)N5)c(C#N)c4)c3Cl)c2Cl)cnc1CNC[C@@H]1CCC(=O)N1` [compound 152], the IC50 amounted to 0.073 nM.
With `COc1nc(-c2cccc(-c3cccc(-c4cnc(CNC[C@@H]5CCC(=O)N5)c(OC)n4)c3Cl)c2Cl)cnc1CNCc1nc[nH]n1` [compound 28], the IC50 was 0.436 nM.
Consider `COc1nc(-c2cccc(-c3cccc(-c4cnc(CN5CC6(CC(O)C6)C5)c(OC)n4)c3Cl)c2Cl)cnc1CNC[C@@H]1CCC(=O)N1` [compound 289], for which the IC50 worked out at 0.06 nM.
With `CNc1nc(-c2cccc(-c3cccc(-c4cnc(CNC[C@H]5C[C@H](O)C5)c(NC)n4)c3Cl)c2Cl)cnc1CNC[C@H]1C[C@H](O)C1` [compound 57], the IC50 amounted to 8.78 nM.
The figure for `COc1nc(-c2cccc(-c3cccc(-c4cnc(CNC5CCC(F)(F)C5)c(OC)n4)c3Cl)c2Cl)cnc1CNC[C@@H]1CCC(=O)N1` (some centres unmarked) [compound 267] is 0.606 nM; for `COc1nc(-c2cccc(-c3cccc(-c4cnc(CNC[C@@H]5CCC(=O)N5)c(OC)n4)c3Cl)c2Cl)cnc1CNCCc1cnn[nH]1` [compound 33] it is 0.138 nM; for `COc1nc(-c2cccc(-c3cccc(-c4cnc(CN[C@H]5C[C@](C)(O)C5)c(OC)n4)c3Cl)c2Cl)cnc1CN[C@H]1C[C@](C)(O)C1` [compound 561] it is 0.164 nM.
The figure for `COc1nc(-c2cccc(-c3cccc(-c4cnc(CN5CCC(c6ccncc6)C5)c(OC)n4)c3Cl)c2Cl)cnc1CNC[C@@H]1CCC(=O)N1` (some centres unmarked) [compound 410] is 0.316 nM; for `COc1cc(-c2cccc(-c3cccc(-c4cnc(CNC[C@@H]5CCC(=O)N5)c(OC)n4)c3Cl)c2Cl)ccc1CNC[C@@H]1CCC(=O)N1` [compound 125] it is 0.225 nM.
As to `CNC(=O)C1CN(Cc2ncc(-c3cccc(-c4cccc(-c5cnc(CN6CC(C(=O)NC)C6)c(OC)n5)c4Cl)c3Cl)nc2OC)C1` [compound 555], the IC50 came to 0.345 nM.
Consider `COc1nc(-c2cccc(-c3cccc(-c4ccc5c(CN6CC7(C6)CN(C(C)=O)C7)cn(C)c5n4)c3Cl)c2Cl)cnc1CN1CC2(C1)CN(C(C)=O)C2` [compound 491], for which the concentration for half-maximal inhibition (IC50) was 0.064 nM.
`COc1nc(-c2cccc(-c3cccc(-c4ccc5c(CN6CC(O)C6)cn(C)c5n4)c3Cl)c2Cl)cnc1CN1CC(O)C1` [compound 492]: the IC50 was found to be 0.092 nM.
Take `COc1nc(-c2cccc(-c3cccc(-c4cnc(CN5CC(S(C)(=O)=O)C5)c(OC)n4)c3Cl)c2Cl)cnc1CNC[C@@H]1CCC(=O)N1` [compound 574]: the IC50 was determined as 0.133 nM.
For `COc1nc(-c2cccc(-c3cccc(-c4cnc(CNCC5CN(C(C)=O)C5)c(OC)n4)c3Cl)c2Cl)cnc1CNCC1CN(C(C)=O)C1` [compound 189] the value was 0.094 nM; for `COc1nc(-c2cccc(-c3cccc(-c4cnc5c(CN6CC7(C6)CN(C(C)=O)C7)cn(C)c5n4)c3Cl)c2Cl)cnc1CNC[C@H]1CCC(=O)N1` [compound 604], 0.064 nM.
For `COc1nc(-c2cccc(-c3cccc(-c4cnc(CNCC(C)(C)NC(C)=O)c(OC)n4)c3Cl)c2Cl)cnc1CNC[C@@H]1CCC(=O)N1` [compound 376] the value was 0.208 nM.
For `COc1nc(-c2cccc(-c3cccc(-c4cnc(CNC5CCN(C)C(=O)C5)c(OC)n4)c3Cl)c2Cl)cnc1CNC[C@@H]1CCC(=O)N1` (some centres unmarked) [compound 416] the value was 0.14 nM; for `CN(C)c1nc(-c2cccc(-c3cccc(-c4cnc(CN5CC6(CCC(=O)N6)C5)c(Cl)n4)c3Cl)c2Cl)cnc1CN1CC2(CCC(=O)N2)C1` [compound 104], 0.077 nM.
Consider `COc1nc(-c2cccc(-c3cccc(-c4cnc(CNC5CCN(C(C)=O)CC5)c(OC)n4)c3Cl)c2Cl)cnc1CNC[C@H]1CCC(=O)N1` [compound 206], for which the IC50 was 0.113 nM.
For `CNCc1ncc(-c2cccc(-c3cccc(-c4cnc(CNC)c(OC)n4)c3Cl)c2Cl)nc1OC` [compound 402] the value was 0.175 nM; for `COc1nc(-c2cccc(-c3cccc(-c4cnc(CN5CC[C@H](C(N)=O)C5)c(OC)n4)c3Cl)c2Cl)cnc1CNC[C@@H]1CCC(=O)N1` [compound 517], 0.106 nM.
